Holding throughout (type): cell-based
The subject of data set [1] is A549 (lung cancer cell line). The source says:
(§1) In order to confirm the anticancer activity of the analogues prepared by Example 1 on A549 (lung cancer cell line, ATCC, U.S.A.), A498 (kidney cancer cell line, Korean Cell Line Bank, Korea), HCT116 (colon carcinoma cell line, Korean Cell Line Bank, Korea), MKN45 (stomach cell line, Korean Cell Line Bank, Korea), NCI-H630 (liver cancer cell line, Korean Cell Line Bank, Korea), PC-3 (prostatic carcinoma cell line, Korean Cell Line Bank, Korea), SK-MEL-2 (skin cancer cell line, Korean Cell Line Bank, Korea) and SK-OV-3 (human solid cancer cell line, Korean Cell Line Bank, Korea), the standard microculture MTT method was performed with the procedure described in the literature (Angelina Quintero et al., J Pharm Pharmaceut Sci, Vol. 2, No. 3, pp 108-112, 1999; Ashtosh K. Pathak et al., J. Am Coll Nutr., Vol. 21, No. 5, pp 416-421, 2002). Each cell line was poured into 96 well microtiter plates and cultivated at 37° C. for 24 hrs. When the cell reached to exponential growth phase, the test sample was added to each plates and each cell was inoculated into the plates added with both of dissolved and non-dissolved DMSO to culture for 3 days. 50 μl of MTT (2 mg/ml) (M5655, SIGMA, U.S.A.) was added thereto and cultured for 3 hrs. The supernatant was removed and the wells were shaken weakly to dissolve formazan crystals. 150 μl of DMSO was added thereto. The non-treated well with cell was set to blank and the wells non-treated with drug were set to standard based on the cell viability. The UV absorbance was measured by microplate reader (SAFIRE, Tecan, Austria) to calculate the cell viability at 570 nm. The inhibition rate of cell growth was calculated by following Math FIG. 1. inhibition rate of cell growth (%)={1−(absorbance of treated cells/absorbance of non-treated cells)}×100 Math Figure 1 The IC value of each cell was calculated by the amount of drug causing to 50% reduction of the absorbance comparing with that of non-treated cells.

In data set [2] the test system is HCT116 (colon carcinoma cell line).
From the text: as §1

Data set [3] deals with MKN45 (stomach cell line).
From the text: as §1

For data set [4], the system named is SK-MEL-2 (skin cancer cell line).
From the text: as §1

Data set [5] has as its system SK-OV-3 (human solid cancer cell line).
From the text: as §1

Data set [6] relates to erythrocyte. The method, then:
3 ml of blood sample collected from healthy male was mixed with PBS (phosphate buffered saline, isotonic solution) with a ratio of 1:1 (v/v), centrifuged to remove buffy coat and blood plasma and washed with physiological saline solution three times to isolate pure erythrocyte. The erythrocyte was suspended in 20 ml of PBS and pre-incubated in water bath at 37° C. for 15 mins. […] of peptide solution was mixed with […] of erythrocyte solution in order to prepare various mixed solution containing various final concentrations of the peptides, i.e., 100, 50, […] and the solution was incubated in water bath at 37° C. for 15 mins. The supernatant was centrifuged with centrifuge and 100 ml of the supernatant was diluted with ImI of PBS to determine its absorbance at 550 nm. The percentage of hemolysis (%) was determined from the relative attenuation of the absorbance of sample compared with that of the suspension treated with 0.2% Triton X-100.

Data set [7] relates to Bacillus subtilis. The data set is described as follows: Antimicrobial activity, MIC by standard broth microdilution. Particulars: Gram-positive. The method, then:
(§2) Antimicrobial activity was determined by the standard broth microdilution method by measuring the MIC values against diverse microorganisms. In brief, Luria-Bertani medium was used as a broth medium. 30 μl of sample (2 mg/ml) prepared from Example 1 and 270 μl of fluid medium were added to lane 1 well of 96-well microtiter plates and to remaining lanes of the wells, only 150 μl of medium was added thereto. 150 μl of sample solution in lane 1 was mixed with lane 2 to prepare diluted solution (×2). With similar diluting method to the above described method, serial dilution was performed to prepare 150 μl of diluted drug solution (×2) to the extent that the final drug concentration reached to the range from 1.6 to 200 μg/ml in respective well. 25 μl of the cell culture being grown to 10^6-10^8 colony forming unit/ml in 3 ml of broth was added to each well and the micro-titer plate was incubated for overnight at 37° C.
(In general: Dilution methods test growth across graded concentrations, often in twofold steps.)

The test system of data set [8] is Escherichia coli. The data set is described as above. To be noted: Gram negative. The method, then: as §2
For data set [9], the system named is Klebsiella pneumoniae. The data set is described as above. To be noted: Gram negative. The method, then:
as §2

Data set [10] concerns Micrococcus luteus. The description is as above. To be noted: Gram-positive. The method, then: as §2
The subject of data set [11] is Proteus mirabilis. Described as above. Particulars: Gram negative. The method, then: as §2
Data set [12] has as its system Pseudomonas aeruginosa. The data set is described as above. To be noted: Gram negative. The method, then:
as §2

In data set [13] the test system is Salmonella typhimurium. The data set is described as above. Particulars: Gram negative. The method, then: as §2
Data set [14] deals with Shigella dysentariae. The description is as above. To be noted: Gram negative. The method, then:
as §2

For data set [15], the system named is Staphylococcus aureus. The data set is described as above. Particulars: Gram-positive. The method, then: as §2
Data set [16] deals with Staphylococcus epidermis. Described as above. Particulars: Gram-positive. The method, then:
as §2

Where no end group is shown, it is not given here.

In general, IC50 refers to the concentration needed to halve the response being measured. Lower therefore signals higher potency. Consider “FLWWLFKWAWK-NH2 [model 28, F-L-W-W-L-F-K-W-A-W-K]”, for which the IC50 in data set [1] came to 15.9 µM; in data set [2], 14.8 µM; in data set [3] it was 13.8 µM; in [4], 13.2 µM; in data set [5], 14.6 µM.

Regarding “FLGWLFKWASKVL-NH2 [W4,8-GGN5N13, F-L-G-W-L-F-K-W-A-S-K-V-L]”, the “hemolytic activity (in words)” value in data set [6] was “potent hemolytic activity”.

Consider “FLKWLFKWAKK-NH2 [model 26, F-L-K-W-L-F-K-W-A-K-K]”, for which the “hemolytic activity (in words)” value in [6] is “much less hemolysis than the others”. Besides, the IC50 in data set [1] turned out to be 14.5 µM; in data set [2], 14.8 µM; in data set [5], 12.6 µM.

For “FLGWLFKWASK-NH2 (C-terminus assumed) [W4,8-GGN5N11]”, the Minimal inhibitory concentration was 3.2 µg/mL in data set [7]; 50 µg/mL in data set [8]; 50 µg/mL in data set [9]; 3.2 µg/mL in data set [10]; more than 200 µg/mL in [11]; more than 200 µg/mL in [12]. For the same substance, the Minimal inhibitory concentration in data set [13] was more than 200 µg/mL; in data set [14], 12.5 µg/mL; in data set [15] it was 1.6 µg/mL; in data set [16], 3.2 µg/mL.

“FLGWLFKWAWK-NH2 [model 27, F-L-G-W-L-F-K-W-A-W-K]” showed a half-maximal inhibitory concentration (IC50) in data set [4] of 14 µM.
